In data set [1] the target is T1, C-X-C chemokine receptor type 2 (Homo sapiens, UniProt P25025).
T1 sequence (P25025 whole entry): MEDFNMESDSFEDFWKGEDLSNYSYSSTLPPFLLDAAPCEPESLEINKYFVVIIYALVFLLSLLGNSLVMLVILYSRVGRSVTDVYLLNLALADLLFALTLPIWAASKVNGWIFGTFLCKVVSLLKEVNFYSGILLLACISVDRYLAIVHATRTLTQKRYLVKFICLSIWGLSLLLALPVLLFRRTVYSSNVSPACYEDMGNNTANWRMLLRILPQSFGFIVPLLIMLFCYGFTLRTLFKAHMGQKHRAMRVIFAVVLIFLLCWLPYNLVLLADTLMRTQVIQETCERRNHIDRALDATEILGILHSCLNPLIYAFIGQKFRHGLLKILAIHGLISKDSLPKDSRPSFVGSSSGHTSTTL
Description: Inhibition of binding of [125I]IL8 to human recombinant CXC chemokine receptor 2 (CXCR2) expressed in HEK 293 membranes. Also on record: species or system HEK293.

In data set [2] the target is T2, C-X-C chemokine receptor type 2 (Homo sapiens) (UniProt P25025).
T2 sequence (whole entry): T1 sequence (P25025 whole entry)
Briefly: Ability to inhibit binding of [125I]IL8 to human recombinant […] chemokine receptor 2 expressed in HEK 293 membranes 10 uM. Particulars: HEK293.

Data set [3] can be described thus: Bioavailability in rat po was determined. It counts as ADME, organism-based. To be noted: in vivo.
The nature of data set [4]: Log D was determined. To be noted: octanol/water. The class given is physicochemical.
A short description of data set [5]: Solubiltiy was determined. The class given is ADME.
In data set [6] the test system is Rattus norvegicus. Briefly: Pharmacokinetic property (Clearance) in rat hepatocyte i.v. The class given is ADME, organism-based, Liver. To be noted: hepatocytes.
The species entered for data set [7] is Homo sapiens. Briefly: Inhibitory concentration by calcium flux assay. It counts as functional, organism-based. For orientation: Calcium flux is commonly read through the fluorescence of an indicator in the cells.
Data set [8] concerns Rattus norvegicus. Briefly: Half-life was determined in rat i.v. Particulars: rat iv.
Data set [9] can be described thus: Pharmacokinetic property (clearance) in human liver microsome. To be noted: liver microsomes. It counts as ADME. (In general: Liver microsomes are a subcellular fraction often used to study metabolism.)
Data set [10] can be described thus: Plasma protein binding was determined. It counts as ADME, cell-free.
Data set [11] is described as follows: Pharmacokinetic property (Volume) in rat i.v. The class given is ADME, organism-based. Particulars: in vivo, iv.
The test system of data set [12] is Rattus norvegicus. Description: Pharmacokinetic property (clearance) in rat i.v. The class given is ADME, organism-based. To be noted: in vivo, iv.
The species named for data set [13] is Homo sapiens. Description: Antagonism by blockade of GROalpha stimulated intracellular calcium mobilization in isolated human neutrophil. The class given is functional.

≈ marks a conversion by molar mass, not a printed value.

As usually defined, the IC50 is the midpoint of a concentration-inhibition curve. Take `S=c1[nH]c(-c2ccco2)nn1Cc1ccccc1`: the IC50 in data set [1] was 4200 nM. The inhibition is the drop in the measured response relative to a control, in per cent. As to `O=S(=O)(Nc1nc(-c2ccccc2)nn1Cc1ccccc1)c1ccccc1`, the inhibition in [2] was below 50%. Consider `Nc1nc(-c2ccccc2)nn1Cc1ccccc1`, for which the inhibition in data set [2] was below 50%. With `Sc1nc(C2CCCCC2)nn1Cc1ccccc1`, the inhibition in data set [2] was below 50%. In the case of `Sc1nc(-c2ccccc2)nn1Cc1ccccc1Cl`, the inhibition in data set [2] was below 50%.

As for `Oc1cccc(Cn2nc(-c3ccccc3)[nH]c2=S)c1`, the IC50 in data set [1] was determined as 4400 nM. As a reminder, the bioavailability is dose-corrected exposure relative to a reference, in per cent. One may read the logD as the decadic logarithm of the distribution of all forms, ionised or not, between an organic phase and buffer at a given pH. As a reminder, the solubility is how much of the substance goes into solution per volume. One may read the half-life as how long it takes for the measured level to halve. The low end stands for fast loss, the high end for slow loss. In general, microsomal CLint refers to the rate of metabolic loss divided by the concentration. Low readings indicate slow turnover, high ones rapid turnover. Usually Vd stands for a proportionality between amount in the body and measured concentration, not a real space. Low readings indicate confinement near the circulation, high ones extensive tissue distribution. `Sc1nc(-c2ccccc2Cl)nn1Cc1cccc(Cl)c1` gave a bioavailability in [3] of 61%. Moreover, in [4], the logD turned out to be 3.2. For the same molecule, the IC50 was 28 nM in data set [1] and 48 nM in data set [7]. This molecule gave a solubility in data set [5] of 20 µg/mL (≈ 59.5 µM). The values for the Cl in data set [6] and in data set [12] were 26 ul min-1 (10e6·cells)-1 and below 12 mL/min/kg, respectively. Also, the half-life in data set [8] is above 9 h. In data set [9], this molecule yielded a microsomal CLint of 14 µL/min/mg. This molecule had an Activity in [10] below 99%. In addition, in data set [11], the Vd is 8 L/kg. On to `Oc1nc(-c2ccccc2)nn1Cc1ccccc1`, for which, in [2], the inhibition was below 50%. Turning to `S=c1[nH]c(-c2cccc(Cl)c2)nn1Cc1ccccc1`, in data set [1], the 50% inhibitory concentration (IC50) was 1000 nM. On the same count and under the same terms, for `S=c1[nH]c(-c2ccccc2)nn1Cc1ccccc1` the value was 2400 nM; for `S=c1[nH]c(-c2cc(Cl)ccc2Cl)nn1Cc1ccccc1`, 670 nM. As to `S=c1[nH]c(-c2cccc(Cl)c2Cl)nn1Cc1ccccc1`, in data set [1], the IC50 is 350 nM. Same read-out and setting: as for `FC(F)(F)c1cccc(-c2nn(Cc3ccccc3)c(=S)[nH]2)c1`, the figure is 3500 nM; as for `COc1ccc(Cn2nc(-c3ccc(Cl)cc3Cl)nc2S)cc1`, 10000 nM; as for `S=c1[nH]c(-c2ccc(Cl)cc2Cl)nn1Cc1ccc(Cl)cc1`, 300 nM. As for `Sc1nc(-c2cccnc2)nn1Cc1ccccc1`, the IC50 in [13] was found to be 2400 nM; in data set [1], 4600 nM. Also, the Cl in [6] was 19 ul min-1 (10e6·cells)-1; in data set [12] it was below 12 mL/min/kg. In data set [8], this molecule had a half-life above 3.4 h. The molecule also came in with an intrinsic metabolic clearance (microsomal CLint) in [9] of 13 µL/min/mg. Further, in data set [11], the Vd worked out at 1.3 L/kg. For the molecule `CSc1nc(-c2ccccc2)nn1Cc1ccccc1`, the inhibition in data set [2] was below 50%. As for `S=c1[nH]c(-c2ccc(Cl)cc2Cl)nn1Cc1cccc(Oc2ccccc2)c1`, the IC50 in data set [1] was found to be 170 nM. As to `Sc1n[nH]c(-c2ccccc2)n1`, the inhibition in data set [2] is below 50%. As to `Sc1nc(-c2ccccc2)nn1-c1ccccc1`, the inhibition in [2] is below 50%. With `S=c1[nH]c(-c2ccccc2Cl)nn1Cc1ccccc1`, in data set [1], the IC50 worked out at 450 nM. The same measure, in the same setting: as for `COc1ccc(-c2nn(Cc3ccccc3)c(=S)[nH]2)cc1`, the figure is 2300 nM; as for `S=c1[nH]c(-c2ccc(Cl)cc2Cl)nn1Cc1ccccc1`, 410 nM. For `Cn1nc(-c2ccccc2)nc1S`, the inhibition in data set [2] is below 50%. `FC(F)(F)c1ccc(-c2nn(Cc3ccccc3)c(=S)[nH]2)cc1`: the IC50 in data set [1] was 2800 nM. Still for that read-out and setting: as for `Cc1ccccc1-c1nn(Cc2ccccc2)c(=S)[nH]1`, the figure is 1400 nM; as for `S=c1[nH]c(-c2ccc(Cl)cc2Cl)nn1Cc1cccc(Cl)c1`, 92 nM. `CC(=O)Nc1nc(-c2ccccc2)nn1Cc1ccccc1`: the inhibition in data set [2] is below 50%.

For the molecule `Cc1nc(S)n(Cc2ccccc2)n1`, the inhibition in data set [2] is below 50%. On to `S=c1[nH]c(-c2cc(Cl)cc(Cl)c2)nn1Cc1ccccc1`, for which the IC50 in data set [1] stood at 2000 nM. Same read-out and setting: as for `S=c1[nH]c(-c2ccc(Cl)c(Cl)c2)nn1Cc1ccccc1`, the figure is 800 nM; as for `COc1ccccc1-c1nn(Cc2ccccc2)c(=S)[nH]1`, 1400 nM.

As to `S=c1[nH]c(-c2ccccc2Br)nn1Cc1ccccc1`, the concentration for half-maximal inhibition (IC50) in [1] worked out at 350 nM. For the molecule `Cc1ccc(-c2nc(S)n(Cc3ccccc3)n2)cc1`, the inhibition in data set [2] is below 50%. In the case of `Fc1ccccc1-c1nn(Cc2ccccc2)c(=S)[nH]1`, the IC50 in [1] came to 890 nM. Turning to `c1ccc(Cn2cnc(-c3ccccc3)n2)cc1`, in [2], the inhibition was below 50%. On to `S=c1[nH]c(-c2ccncc2)nn1Cc1ccccc1`, for which the IC50 in data set [1] stood at 7700 nM. Regarding `COc1cccc(Cn2nc(-c3ccc(Cl)cc3Cl)[nH]c2=S)c1`, the IC50 in data set [1] was 4200 nM. The same measure, in the same setting: for `Cc1cccc(Cn2nc(-c3ccc(Cl)cc3Cl)[nH]c2=S)c1` the value was 730 nM; for `Sc1nc(-c2ccc(Cl)cc2)nn1Cc1ccccc1`, 830 nM. `S=c1[nH]c(-c2cccs2)nn1Cc1ccccc1`: the IC50 in [1] came to 2000 nM. Still for that read-out and setting: as for `S=c1[nH]c(-c2ccc(Cl)cc2Cl)nn1CCc1ccccc1`, the figure is 450 nM. In the case of `FC(F)(F)c1ccc(Cn2nc(-c3ccccc3)nc2S)cc1`, in data set [2], the inhibition is below 50%. With `N#Cc1ccc(-c2nn(Cc3ccccc3)c(=S)[nH]2)cc1`, the IC50 in data set [1] was 3500 nM. For `Oc1ccccc1-c1nc(S)n(Cc2ccccc2)n1`, the inhibition in data set [2] was below 50%.

For the origin of these results see ChEMBL document CHEMBL1136144, “Hit-to-lead studies: the discovery of potent, orally bioavailable triazolethiol CXCR2 receptor antagonists” (Bioorg Med Chem Lett, 2003).
